Consider two compounds from patent publication US10501805B2, “Methods for determining responsiveness to MEK/ERK inhibitors” (CROWN BIOSCIENCE, INC. (TAICANG), priority 2014, dated 2019).

Assay type in all cases: cell-based
For one test, the system named is KYSE150. Put plainly: CellTiter-Glo cell viability, IC50 determination. To be noted: Homo sapiens, KYSE-150, 72 h; KYSE150 cell line; 3-day CTG assay; read-out: Absolute IC50. The protocol:
(§1) All the cells will be cultured in the media supplemented with 10% FBS except for which are marked specially, in the temperature of 37° C., 5% CO2 and 95% humidity.
(§2) Cell viability is assayed by using CellTiter-Glo® Luminescent Cell Viability Assay Kit (Cat. No.: G7572, Promega. Store at −20° C.). To prepare the CellTiter_Glo Reagent, the CellTiter-Glo Buffer was thawed and equilibrated to room temperature prior to use. For convenience the CellTiter-Glo Buffer may be thawed and stored at room temperature for up to 48 hours prior to use. The lyophilized CellTiter-Glo Substrate is equilibrated to room temperature prior to use. The appropriate volume (100 ml) of CellTiter-Glo Buffer is transferred into the amber bottle containing CellTiter-Glo Substrate to reconstitute the lyophilized enzyme/substrate mixture, which forms the CellTiter-Glo Reagent. In certain cases, the entire liquid volume of the CellTiter-Glo Buffer bottle may be added to the CellTiter-Glo Substrate vial. Mix by gently vortexing, swirling or by inverting the contents to obtain a homogeneous solution. The CellTiter-Glo Substrate should go into solution easily in less than one minute.
(§3) The day before the experiment (Day −1), cells were dissociated during the logarithmic growth period with Cell Disassociation Buffer (Gibco 13151-014) and mixed with appropriate cell media and centrifuge at 1000 rpm for 3 minutes. The cells were re-suspended and counted using Countstar before adjusting cell concentrations to optimized density (i.e. 4.44×10^4 cells/ml) with respective culture medium listed in Table 1 for 3-day CTG assay (The cell density was optimized before actual study; cell density used in the test may vary for different cell lines). 90 μl cell suspensions were added to two 96-well plates (plates A and B) with the final cell density of 4×10^3 cells/well for 3-day CTG assay (the cell density was optimized before actual study; cell density used in the test may vary for different cell lines). The plate A and B group were incubated for overnight in humidified incubator at 37° C. with 5% CO2.
(§4) On Day 0, for plate A group, 10 μl culture medium was added to each well for T0 reading. CellTiter-Glo® Reagent was added at equal volume of cell culture medium present in each well (e.g., add 100 μl of reagent to 100 μl of medium containing cells for a 96-well plate). Contents were mixed for 2 minutes on an orbital shaker to facilitate cell lysis. The plate was allowed to incubate at room temperature for 10 minutes to stabilize luminescent signal. Backseal black sticker was added to the bottom of each plate. Luminescence was recorded using EnVision Multi Label Reader. This formed the basis for T0 value.
(§5) On Day 0, the test articles and positive controls were dissolved at the concentration indicated at Test Article Dilution map. 100× solution in PBS was prepared and then diluted with appropriate culture media (1:10) into 10×working solutions. 10 μl (10×) drug solutions were dispensed in each well (triplicate for each drug concentration) of the plate B group according to plate inoculation map. The test plates were incubated for […] in the humidified incubator at 37° with 5% CO2.
(§6) On Day 3, CellTiter-Glo® Reagent was added at equal volume of cell culture medium present in each well (e.g., add 100 μl of reagent to 100 μl of medium containing cells for a 96-well plate). Contents were mixed for 2 minutes on an orbital shaker to induce cell lysis. The plate was allowed to incubate at room temperature for 10 minutes to stabilize luminescent signal. Backseal black sticker was placed to the bottom of each plate. Luminescence was recorded using EnVision Multi Label Reader.
(§7) In order to calculate IC50s, a dose-response curve was fitted using a nonlinear regression model with a sigmoidal dose response. The formula for calculating surviving rate was shown below; Absolute IC50 is calculated where Y axis set at 50% using GraphPad Prism 5.0. Software. […]
Background: In ATP-based viability assays light output follows the ATP content of the culture.

For another test, the system named is SNU-1. Put plainly: CellTiter-Glo cell viability, IC50 determination. Particulars: Homo sapiens, SNU1, 72 h; SNU-1 cell line; 3-day CTG assay; read-out: Absolute IC50. The method, then: as §1, §2, §3, §4, §5, §6, §7
A further test has as its system NCI-H2009. Briefly: CellTiter-Glo cell viability, IC50 determination. Particulars: Homo sapiens, 72 h; NCI-H2009 cell line; 3-day CTG assay; read-out: Absolute IC50. The protocol:
as §1, §2, §3, §4, §5, §6, §7

A further test concerns KM12L4. Briefly: CellTiter-Glo cell viability, IC50 determination. To be noted: KM 12L4, 72 h; KM12L4 cell line; 3-day CTG assay; read-out: Absolute IC50. The method, then:
as §1, §2, §3, §4, §5, §6, §7

A further test deals with MIAPaCa2. Briefly: CellTiter-Glo cell viability, IC50 determination. Particulars: Homo sapiens, MIA PaCa-2, 72 h; MIAPaCa2 cell line; 3-day CTG assay; read-out: Absolute IC50. The method, then:
as §1, §2, §3, §4, §5, §6, §7

The next test deals with HT29. Put plainly: CellTiter-Glo cell viability, IC50 determination. Particulars: Homo sapiens, HT-29, 72 h; HT29 cell line; 3-day CTG assay; read-out: Absolute IC50. The method, then: as §1, §2, §3, §4, §5, §6, §7
The subject of the next test is HM-7. Put plainly: CellTiter-Glo cell viability, IC50 determination. Particulars: 72 h; HM-7 cell line; 3-day CTG assay; read-out: Absolute IC50. The protocol:
as §1, §2, §3, §4, §5, §6, §7

Another test deals with BxPc-3. Briefly: CellTiter-Glo cell viability, IC50 determination. To be noted: Homo sapiens, 72 h; BxPc-3 cell line; 3-day CTG assay; read-out: Absolute IC50. The method, then: as §1, §2, §3, §4, §5, §6, §7
For a further test, the system named is 22RV1. Briefly: CellTiter-Glo cell viability, IC50 determination. Particulars: Homo sapiens, 72 h; 22RV1 cell line; 3-day CTG assay; read-out: Absolute IC50. The method, then:
as §1, §2, §3, §4, §5, §6, §7

The test system of another test is panel of 50 cell lines. Put plainly: Sensitivity of cell line panel by gene mutation status. An excerpt:
We examined the anti-proliferation activity of a MEK inhibitor, trametinib, and an ERK1/2 inhibitor, SCH772984, in a panel of […] (see Table 1).
We divided the 63 cell lines into sensitive, insensitive, and uncertain groups according to their IC50's for SCH772984 and Trametinib, respectively, then detected genes with differential expression or different mutation types between sensitive and insensitive groups. These genes were enriched in several cancer related pathways.
The 63 cell lines were divided into 3 groups (See Table 1): a sensitive group (IC50 values were less than 1), an insensitive group (IC50 values are greater than 10), and an uncertain group (the rest). Accordingly, we got 25 sensitive and 22 insensitive cell lines for SCH772984, and 34 sensitive and 24 insensitive cell lines for Trametinib. Only cell lines with genomic data were used in subsequent analysis. The differentially expressed genes and enriched pathways were analysed using GSEA software, the genes with different mutation types were detected using Fisher's exact test.
29 sensitive and 20 insensitive cell lines have mutation information, and ADAM12, COL14A1, TNN and TP53 were identified by P-value cutoff of 0.01 (See Table 3 and FIG. 1-5).
21 sensitive and 18 insensitive cell lines have mutation information, and ADAM12, PEX5L, TNN and TP53 were identified by P-value cutoff of 0.01 (See Table 3 and FIGS. 6-10).

Where [1] appears, read: cells harboring mutations in ADAM12 gene.
Setting [2] is: cells harboring mutations in TNN gene.
The mark [3] stands for this setting: cells harboring mutations in TP53 gene.

For `O=C(Nc1ccc2[nH]nc(-c3ccncc3)c2c1)[C@@H]1CCN(CC(=O)N2CCN(c3ccc(-c4ncccn4)cc3)CC2)C1` [SCH772984, (R)-1-(2-oxo-2-(4-(4-(pyrimidin-2-yl)phenyl)piperazin-1-yl)ethyl)-N-(3-(pyridin-4-yl)-1H-indazol-5-yl)pyrrolidine-3-carboxamide], the IC50 (in general, the concentration at which inhibition is half-maximal) in the test with KYSE150 stood at 1720 nM; in the test on SNU-1, 640 nM; with NCI-H2009, 4360 nM; with KM12L4 it was 360 nM; in the test on MIAPaCa2, 210 nM; in the test on HT29, 230 nM. For the same compound, the IC50 was determined as 790 nM in the test on HM-7, 320 nM with BxPc-3 and 5010 nM in the test on 22RV1. Moreover, the “sensitivity to inhibitor in cells harboring mutations” value is “increased sensitivity” with panel of 50 cell lines (cells harboring multiple mutations in ADAM 12, PEX5L, TNN and TP53 gene); “increased sensitivity” in the test with panel of 50 cell lines (setting [1]); “increased sensitivity” with panel of 50 cell lines (cells harboring mutations in PEX5L gene); “increased sensitivity” in the test on panel of 50 cell lines (setting [2]); “increased sensitivity” in the test with panel of 50 cell lines (setting [3]).
Consider `CC(=O)Nc1cccc(-n2c(=O)n(C3CC3)c(=O)c3c(Nc4ccc(I)cc4F)n(C)c(=O)c(C)c32)c1` [Trametinib, N-(3-{3-Cyclopropyl-5-[(2-fluoro-4-iodophenyl)amino]-6,8-dimethyl-2,4,7-trioxo-3,4,6,7-tetrahydropyrido[4,3-d]pyrimidin-1(2H)-yl}phenyl)acetamide], for which the IC50 in the test with KYSE150 was 5280 nM; in the test with SNU-1, 100 nM; in the test with NCI-H2009, 410 nM; in the test with KM12L4 it was 10 nM; in the test on MIAPaCa2, 30 nM; in the test on HT29, 10 nM. In addition, the IC50 with HM-7 was 390 nM; in the test on BxPc-3, 30 nM; in the test with 22RV1, 202000 nM. The “sensitivity to inhibitor in cells harboring mutations” value in the test on panel of 50 cell lines (cells harboring multiple mutations in ADAM12, COL14A1, TNN, and TP53 gene) is “increased sensitivity”; in the test with panel of 50 cell lines (setting [1]), “increased sensitivity”; in the test with panel of 50 cell lines (cells harboring mutations in COL14A1 gene), “decreased sensitivity”; in the test on panel of 50 cell lines (setting [2]), “increased sensitivity”; in the test with panel of 50 cell lines (setting [3]), “increased sensitivity”.
